Measured values published in patent publication US9902713B2, “Neuroprotective compounds and use thereof” (BOARD OF REGENTS OF THE UNIVERSITY OF TEXAS SYSTEM, priority 2013, dated 2018).

Experiments:
[1] = system: cultured cortical neurons; test: 6-OHDA toxicity in cultured neurons (MTT); type: cell-based; details: 10 μM compound
Protocol: (§1) A rat model of Parkinson's disease, incuded by 6-hydroxydopamine (6-OHDA) was used to test various compounds As shown in FIGS. 33A-33D, P7C3-S243 protects cultured hippocampal and cortical neurons from 6-OHDA toxicity. […] (FIG. 33B) The average number of hippocampal neurons in the 10 μM P7C3-S243 treatment group was not different from the average number of hippocampal neurons treated with medium alone or with DMSO+Ascorbic acid (one-way ANOVA). […] The average number of cortical neurons in the 10 μM P7C3-S243 treatment group was not different from the average number of cortical neurons treated with medium alone or with DMSO+Ascorbic acid (one-way ANOVA). Experiments were performed two independent times, with 8-12 replicates of each sample both times.

[2] = system: cultured hippocampal neurons; test: 6-OHDA toxicity in cultured neurons (MTT); type: cell-based; details: 10 μM compound
Protocol: as §1

[3] = system: hippocampal CA1 Schaffer-collateral pathway; test: Hippocampal electrophysiology (LTP, PPF) after blast-mediated TBI; type: in vivo, mice
Protocol: To test our hypothesis that performance in the Barnes maze was associated with hippocampal function, we investigated synaptic plasticity in the hippocampus. Specifically, we measured both long-term potentiation (LTP) and paired pulse facilitation (PPF) in brain slices derived from mice exposed to blast-injury as a function of treatment with different doses of P7C3-S243 for 9 days, initiated 24 hours after injury, in animals not subjected to behavioral testing. The stimulating electrode activated CA3 Schaeffer collateral axons, and the recording electrode was placed in the stratum radiatum of the CA1 region, where Schaffer collateral axons synapse with dendrites from CA1 pyramidal cells. […] Thus, dose-dependent protective efficacy of P7C3-S243 in behavioral tasks of learning and memory correlated with hippocampal function.
Electrophysiology. Single-housed, naïve 7- to 9-week-old male C57BL/6J mice received intraperitoneal injections of P7C3-S243 (0.3, 3, or 30 mg/kg/day) or vehicle 24 h following a single sham- or blast-Injury. On the tenth day after injury, coronal hippocampal slices (400 μm) were prepared, in accordance with the University of Iowa guidelines. Briefly, hippocampal slices were cut using a Vibratome 1000 Plus (Vibratome, St. Louis, Mo.) in ice-cold slicing buffer (in mM: 127 NaCl, 26 NaHCO3, 1.2 KH2PO4, 1.9 KCl, 1.1 CaCl2, 2 MgSO4, 10 D-Glucose) bubbled with 95% 02 and 5% CO2. Slices were then transferred to a holding chamber containing oxygenated artificial cerebrospinal fluid (ACSF; in mM: 127 NaCl, 26 NaHCO3, 1.2 KH2PO4, 1.9 KCl, 2.2 CaCl2, 1 MgSO4, 10 D-Glucose) for 30 min at 34 C and for another 30 min at 22° C. for recovery, and then transferred to a submersion recording chamber continually perfused with 32° C. oxygenated ACSF (rate: 2 ml/min). Slices were equilibrated for at least 15 min before each recording.
ACSF-filled glass electrodes (resistance <1 MΩ) were positioned in the stratum radiatum of area CA1 for extracellular recording. Synaptic responses were evoked by stimulating Schaffer collaterals with 0.2 ms pulses once every 15 s. […] Experiments with maximal fEPSPs of less than 0.5 mV, with large fiber volleys, or with substantial changes in the fiber volley during recording were rejected. LTP was induced by 12TBS (12 bursts, each of 4 pulses at 100 Hz).
Field EPSPs were recorded (AxoClamp 900A amplifier, Axon Instruments, Foster City, Calif.), filtered at 1 kHz, digitized at 10 kHz (Axon Digidata 1440), and stored for off-line analysis (Clampfit 10). Initial slopes of fEPSPs were expressed as percentages of baseline averages. In summary graphs, each point represents the average of 4 consecutive responses. The time-matched, normalized data were averaged across experiments.

[4] = system: cultured cortical neurons; test: MPP+ toxicity in cultured neurons (MTT); type: cell-based; details: 10 μM compound, 10 μM MPP+, 24 hrs
Protocol: FIGS. 35A-35B show P7C3-S243 and P7C3-A20 protect cultured hippocampal and cortical neurons from MPP^+ toxicity. […] Experiments were performed 2 independent times with 8-12 replicates of each sample both times.

[5] = target: μ-opioid receptor (Homo sapiens, UniProt P35372); test: Ligand displacement (Psychoactive Drug Screening Program); type: binding
[6] = target: CYP2C19 (Homo sapiens, UniProt P33261); test: Cytochrome P450 inhibition
[7] = system: 47 neuronal receptors and channels; test: NIH Psychoactive Drug Screening Program panel; type: binding
[8] = system: blast-injured mice; test: Foot slip assay after blast-injury; type: in vivo; details: 28 days after injury, daily oral 6 mg/kg/day from 24 hours
Source text: Because the cerebellum controls coordination, we next assayed their balance and coordination, using standard procedures (Luong et al., 2011). Mice were trained to cross an 80 cm long beam over 2 days, and then sham or blast-injured on day 3. […] Mice were videotaped during the test, and then analyzed for the number of foot slips by observers blind to treatment group. […] Thus, protective efficacy for cerebellar axonal degeneration after injury by (−)-P7C3-S243 correlated with preservation of motor coordination.
Foot slip assay. We used standard procedures described by Luong et al. (2011) to measure motor balance coordination. During the training period, mice were trained to cross the 80 cm beam to enter a black box with nesting material 3 times a day over 2 consecutive days. Mice were then sham-or blast-Injured on the next day. 24 hrs after injury, daily administration with (−)-P7C3-S243 or vehicle was initiated. Animals were then tested 7 and 28 days after injury. Mice performance was videotaped during the test and foot slips were analyzed by an observer blind to condition and treatment group.

[9] = target: CYP1A2 (Homo sapiens, UniProt P05177); test: Cytochrome P450 inhibition
[10] = target: 2C9 (Homo sapiens, UniProt P11712); test: Cytochrome P450 inhibition; type: in vitro ADME
[11] = system: H2009; test: Toxicity towards human cancer cell line; type: cell-based; details: NCI-H2009
[12] = target: hERG (Homo sapiens, UniProt Q12809); test: hERG patch clamp assay
[13] = system: dopaminergic neurons within the substantia nigra; details: previously reported; cited from earlier work

hERG, sequence (Q12809 whole entry): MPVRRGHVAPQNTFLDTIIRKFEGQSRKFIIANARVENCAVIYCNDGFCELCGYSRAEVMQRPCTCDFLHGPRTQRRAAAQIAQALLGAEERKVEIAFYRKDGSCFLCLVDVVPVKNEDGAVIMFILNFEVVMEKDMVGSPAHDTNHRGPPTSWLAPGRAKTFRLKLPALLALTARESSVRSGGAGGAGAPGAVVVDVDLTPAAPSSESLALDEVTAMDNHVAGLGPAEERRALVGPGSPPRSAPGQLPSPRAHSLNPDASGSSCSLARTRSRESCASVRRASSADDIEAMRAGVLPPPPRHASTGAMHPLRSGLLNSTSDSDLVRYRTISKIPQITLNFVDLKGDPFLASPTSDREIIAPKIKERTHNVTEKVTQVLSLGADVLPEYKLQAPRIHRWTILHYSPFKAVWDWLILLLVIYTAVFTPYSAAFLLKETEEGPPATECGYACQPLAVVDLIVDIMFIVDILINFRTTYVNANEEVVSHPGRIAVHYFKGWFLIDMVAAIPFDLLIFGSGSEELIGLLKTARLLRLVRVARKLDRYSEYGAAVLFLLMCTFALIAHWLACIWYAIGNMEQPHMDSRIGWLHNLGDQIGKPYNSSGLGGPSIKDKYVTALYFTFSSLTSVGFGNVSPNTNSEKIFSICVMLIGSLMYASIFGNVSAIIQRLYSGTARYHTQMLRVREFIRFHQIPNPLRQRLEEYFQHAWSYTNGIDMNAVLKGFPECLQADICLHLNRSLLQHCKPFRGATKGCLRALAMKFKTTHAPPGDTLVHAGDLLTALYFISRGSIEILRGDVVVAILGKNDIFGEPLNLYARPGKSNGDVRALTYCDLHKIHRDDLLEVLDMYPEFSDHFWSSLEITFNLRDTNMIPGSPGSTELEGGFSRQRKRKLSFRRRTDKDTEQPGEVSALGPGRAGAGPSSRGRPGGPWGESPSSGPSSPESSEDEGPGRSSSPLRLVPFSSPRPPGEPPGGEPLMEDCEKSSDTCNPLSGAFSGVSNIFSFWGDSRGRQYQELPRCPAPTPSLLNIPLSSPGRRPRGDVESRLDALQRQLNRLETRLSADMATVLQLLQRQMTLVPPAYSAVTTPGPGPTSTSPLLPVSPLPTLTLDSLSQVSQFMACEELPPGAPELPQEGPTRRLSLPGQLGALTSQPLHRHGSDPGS
CYP2C19, sequence (P33261 whole entry): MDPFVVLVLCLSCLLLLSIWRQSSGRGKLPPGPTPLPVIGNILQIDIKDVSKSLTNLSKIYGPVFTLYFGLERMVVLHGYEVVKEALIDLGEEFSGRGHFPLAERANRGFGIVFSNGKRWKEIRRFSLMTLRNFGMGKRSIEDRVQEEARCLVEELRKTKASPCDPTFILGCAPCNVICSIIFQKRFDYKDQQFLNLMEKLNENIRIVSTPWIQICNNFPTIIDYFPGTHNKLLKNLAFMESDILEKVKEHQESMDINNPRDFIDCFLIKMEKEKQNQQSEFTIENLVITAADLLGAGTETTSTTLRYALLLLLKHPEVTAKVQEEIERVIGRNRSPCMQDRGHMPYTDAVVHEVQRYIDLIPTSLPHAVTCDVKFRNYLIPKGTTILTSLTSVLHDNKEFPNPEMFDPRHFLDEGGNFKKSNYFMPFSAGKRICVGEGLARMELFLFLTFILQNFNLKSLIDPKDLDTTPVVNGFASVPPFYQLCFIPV
μ-opioid receptor, sequence (P35372 whole entry, species assumed): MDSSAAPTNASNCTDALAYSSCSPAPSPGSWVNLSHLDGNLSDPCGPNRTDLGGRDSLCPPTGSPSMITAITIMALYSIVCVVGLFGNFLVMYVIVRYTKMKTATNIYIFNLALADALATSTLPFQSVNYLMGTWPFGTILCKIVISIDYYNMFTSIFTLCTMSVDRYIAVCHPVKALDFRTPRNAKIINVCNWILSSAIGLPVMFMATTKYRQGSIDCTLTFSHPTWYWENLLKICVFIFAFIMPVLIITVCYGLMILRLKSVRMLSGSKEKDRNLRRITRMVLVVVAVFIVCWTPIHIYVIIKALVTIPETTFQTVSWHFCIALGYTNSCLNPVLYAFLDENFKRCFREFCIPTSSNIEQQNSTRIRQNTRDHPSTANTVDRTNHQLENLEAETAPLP
2C9, sequence (P11712 whole entry): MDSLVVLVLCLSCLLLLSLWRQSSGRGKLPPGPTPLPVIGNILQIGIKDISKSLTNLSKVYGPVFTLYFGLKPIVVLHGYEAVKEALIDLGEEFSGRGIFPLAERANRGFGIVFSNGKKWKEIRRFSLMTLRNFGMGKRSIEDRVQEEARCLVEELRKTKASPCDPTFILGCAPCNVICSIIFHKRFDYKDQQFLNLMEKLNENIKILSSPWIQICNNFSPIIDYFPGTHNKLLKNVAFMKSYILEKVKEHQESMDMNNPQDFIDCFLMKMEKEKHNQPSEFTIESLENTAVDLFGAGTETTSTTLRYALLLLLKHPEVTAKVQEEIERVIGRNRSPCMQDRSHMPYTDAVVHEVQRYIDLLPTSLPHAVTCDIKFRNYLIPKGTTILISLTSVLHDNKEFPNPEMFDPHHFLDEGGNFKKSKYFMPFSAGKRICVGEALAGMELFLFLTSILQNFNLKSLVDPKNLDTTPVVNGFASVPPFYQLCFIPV
CYP1A2, sequence (P05177 whole entry): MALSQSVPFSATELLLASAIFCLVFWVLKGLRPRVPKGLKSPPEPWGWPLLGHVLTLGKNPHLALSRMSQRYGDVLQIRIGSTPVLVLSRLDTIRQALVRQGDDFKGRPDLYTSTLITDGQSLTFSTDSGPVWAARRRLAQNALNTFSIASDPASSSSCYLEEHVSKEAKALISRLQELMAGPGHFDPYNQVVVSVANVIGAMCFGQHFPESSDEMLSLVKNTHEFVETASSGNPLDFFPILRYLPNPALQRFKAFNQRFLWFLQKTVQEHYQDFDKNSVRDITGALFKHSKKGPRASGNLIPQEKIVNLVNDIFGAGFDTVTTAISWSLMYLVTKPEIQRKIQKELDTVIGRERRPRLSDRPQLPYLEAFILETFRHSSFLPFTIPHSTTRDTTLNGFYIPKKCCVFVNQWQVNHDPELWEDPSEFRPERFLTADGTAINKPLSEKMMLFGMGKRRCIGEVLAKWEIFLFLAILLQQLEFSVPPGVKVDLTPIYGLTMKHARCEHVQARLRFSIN

## COc1cccc(NCC(F)Cn2c3ccc(Br)cc3c3cc(Br)ccc32)n1 (racemic) [P7C3-S243, N-(3-(3,6-dibromo-9H-carbazol-9-yl)-2-fluoropropyl)-6-methoxypyridin-2-amine]
[1]
  average number of neurons vs medium or DMSO+Ascorbic acid: not different
[1]; 50 μM and 75 μM 6-OHDA
  protection (MTT): significant protection
[2]
  average number of neurons vs medium or DMSO+Ascorbic acid: not different
[2]; 50 μM 6-OHDA, 24 hrs
  protection (MTT): significant protection
[3]; 0.3 mg/kg/d from 24 hours after injury
  blast-induced LTP deficit: not rescued
[3]; 0.3 mg/kg/day
  blast-induced deficits in LTP and PPF: had no effect
[3]; 3 and 30 mg/kg/d
  blast-induced PPF deficit, 50 ms inter-pulse interval: rescued
[3]; 3 and 30 mg/kg/d from 24 hours after injury
  blast-induced LTP deficit: rescued
[4]
  protection (MTT): significant protection

## COc1cccc(NCC(F)Cn2c3ccc(Br)cc3c3cc(Br)ccc32)n1 (single isomer, unassigned; (-)) [(−)-P7C3-S243, (−)-N-(3-(3,6-dibromo-9H-carbazol-9-yl)-2-fluoropropyl)-6-methoxypyridin-2-amine]
[5]
  IC50: 8.2 µM
[6]
  IC50: 1.9 µM
[7]
  binding partners among 47 neuronal receptors and channels: no compelling binding partners were identified
[8]
  increase in number of foot slips: normalized
[9]
  IC50: 20 µM
[10]
  sensitivity of cytochrome P450: insensitive
[11]
  IC50: > 10 µM
[12]
  inhibition at 50 µM: < 15%

## COc1cccc(NCC(F)Cn2c3ccc(Br)cc3c3cc(Br)ccc32)c1 (stereo not drawn) [P7C3-A20, N-(3-(3,6-dibromo-9H-carbazol-9-yl)-2-fluoropropyl)-3-methoxyaniline]
[13]
  protection of substantia nigra neurons from MPTP (earlier report): protect neurons in the substantia nigra
